The source of these data is patent publication US10173999B2, “Cyclic amine derivative and pharmaceutical use thereof” (Toray Industries, Inc., priority 2015, dated 2019).

A short description of data set [1]: Stability test in human liver microsomes. It is filed as in vitro ADME. Particulars: pH 7.4; human liver microsomes 0.5 mg/mL, test compound 2 μmol/L, 37° C., 0-30 min; read-out: Hepatic intrinsic clearance, Human. The protocol:
(§1) Experiment was performed using the compound of Example 11, Comparative Example 1 or Comparative Example 6 as a test compound and human liver microsomes (from Xenotech), monkey liver microsomes (from Xenotech), dog liver microsomes (from Xenotech) or mouse liver microsomes (from Xenotech) as the liver microsomes.
(§2) The reagents to be used in the stability test in liver microsomes were prepared as follows. A D-glucose 6-phosphate disodium salt (hereinafter referred to as G6P) was dissolved with distilled water to prepare an aqueous solution of G6P (100 mmol/L). Glucose 6-phosphate dehydrogenase (1000 units) from Yeast (hereinafter referred to as G6PDH) was dissolved with distilled water (5 mL) to prepare an aqueous solution of G6PDH (200 units/mL). MgCl2 was dissolved with distilled water to prepare an aqueous solution of MgCl2 (100 mmol/L). […]
(§3) With respect to the chromatogram of each well obtained by LC/MS analysis or LC/MS/MS analysis, the test compound residual ratio (%) at each reaction time t (min) was calculated based on the peak area at the reaction time of 0 minute as 100%. […]

Data set [2] in a line: Stability test in dog liver microsomes. As to conditions: pH 7.4; dog liver microsomes 0.5 mg/mL, test compound 2 μmol/L, 37° C., 0-30 min; read-out: Hepatic intrinsic clearance, Dog. It counts as in vitro ADME. The protocol: as §1, §2, §3
Data set [3] is described as follows: Pharmacokinetics (PK) test in cynomolgus monkeys. It counts as in vivo, cynomolgus monkey. As to the method:
Cynomolgus monkeys (4 to 6 years old, male) were raised under the conditions of voluntary intake of solid food (Oriental Yeast Co., Ltd) and tap water and fasted from the evening of the day before initiation of administration and subjected to an experiment. Note that blood was sampled at 4 hours after administration (on and after 16:00), and thereafter feeding was restarted.
Dosing solution for intravenous administration was injected through the saphenous vein by use of a syringe needle (attached to a syringe barrel). The oral administration into the stomach was compulsively carried out by inserting a catheter into the nasal cavity.
The blood sampled was centrifuged at 4° C. and 1800×g for 15 minutes to obtain the plasma. The plasma thus obtained was stored at about −80° C. until use in preparation of analysis samples. The plasma obtained from a cynomolgus monkey to which a test compound was administrated, is referred to as a plasma sample; whereas the plasma obtained from a cynomolgus monkey to which a test compound was not administered, is referred to as the blank plasma.
The resulting solution was vortexed and cooled at 4° C. for 10 minutes. A sample for a calibration curve was prepared by adding a standard solution for a calibration curve to the blank plasma and subjecting the resulting mixture to the same treatment. After cooling, each of the samples was spun at 4° C. and 2000 rpm for 10 minutes by a centrifuge (Hitachi Koki Co., Ltd.). The resulting supernatant was used as a sample for LC/MS/MS analysis.
The resulting solution was vortexed and cooled at 4° C. for 10 minutes. A sample for a calibration curve was prepared by adding a standard solution for a calibration curve to the blank plasma and subjecting the resulting mixture to the same treatment. After cooling, each of the samples was spun at 4° C. and 2000 rpm for 10 minutes by a centrifuge (Hitachi Koki Co., Ltd.). The resulting supernatant was diluted 10 fold with 70 vol % acetonitrile containing 0.1 vol % formic acid and subjected as a sample for LC/MS/MS analysis. The LC/MS/MS analysis conditions were as follows:
The test-compound concentrations in the plasma at each sampling time point in the case of intravenous administration or oral administration were calculated and PK analysis was carried out for individual monkeys. PK parameters were calculated by using WinNonlin (Pharsight), in accordance with an analysis independent of a model (intravenous administration: Bolus IV Administration, oral administration: Extravascular Administration; Weight=1/y in both administrations). Furthermore, bioavailability (BA) was calculated based on the following Expression (3) by dividing AUC0-∞iv (time 0 to ∞) at the time of the intravenous administration and AUC0-∞po (time 0 to ∞) at the time of the oral administration by respective dose values to obtained as normalized values. Bioavailability (BA)=(AUC0-∞,po/dose)/(AUC0-∞,iv/dose) (3)

The structures appear in SMILES notation. Counter-ions that a name gives are not always drawn.

Take `CN(C)C1CCN(C(=O)CCc2nccn2C)CC1` [Comparative Example 1, 1-(4-(dimethylamino)piperidin-1-yl)-3-(1-methyl-1H-imidazol-2-yl)propan-1-one hydrochloride]: the microsomal CLint at 2 μmol/L in data set [1] turned out to be 1 µL/min/mg.
With `CC(C)n1ccnc1CCC(=O)N1CCC(N(C)C)CC1` [Comparative Example 6, 1-(4-(dimethylamino)piperidin-1-yl)-3-(1-isopropyl-1H-imidazol-2-yl)propan-1-one hydrochloride], the microsomal CLint at 2 μmol/L in data set [2] amounted to 6 µL/min/mg.
As to `CN(C)C1CCN(C(=O)C[C@H](O)c2nccn2C)CC1` [Example 11, (S)-1-(4-(dimethylamino)piperidin-1-yl)-3-hydroxy-3-(1-methyl-1H-imidazol-2-yl)propan-1-one], the “mean plasma concentration after administration compared with Comparative Example 2” value in data set [3] (cynomolgus monkeys, intravenous and oral 1 mg/kg, all time points) is given as “higher”. In addition, the bioavailability in data set [3] (male, plasma, cynomolgus monkey, 1 mg/kg oral vs 1 mg/kg intravenous, read-out: BA (bioavailability)) was determined as 52.6%. Further, the clearance in data set [3] (male, plasma, cynomolgus monkey, intravenous administration 1 mg/kg, single, read-out: CLtot (total body clearance) (converted)) is 3.25 mL/min/kg. The molecule further returned an AUC(0-inf) in data set [3] (male, plasma, cynomolgus monkey, oral administration 1 mg/kg, single) of 2730 ng·h/mL. Besides, the Cmax in data set [3] (male, plasma, cynomolgus monkey, oral administration 1 mg/kg, single, read-out: Cmax (maximum plasma concentration)) turned out to be 279 ng/mL. Also, the half-life in data set [3] (male, plasma, cynomolgus monkey, oral administration 1 mg/kg, single, read-out: t1/2 (elimination half-life in the plasma) (converted)) was 7.55 h.
